Test results taken from US20050215646A1, “Methods for treating multiple sclerosis and pharmaceutical compositions therefor” (Renovis, Inc., priority 2004, published 2005).

How the values were obtained:
rat EAE model = experiment: Lewis rat model of experimental autoimmune encephalomyelitis (EAE); assay type: in vivo; conditions: 10 mg/kg/day oral gavage
Method: 7- to 10-week female Lewis rats (The Jackson Laboratory, Bar Harbor, Me.) were used since they are susceptible to EAE, and since MS occurs at a 2:1 ratio between females and males respectively. Rats were immunized either at the base of the tail (or in one hind footpad) with myelin antigen myelin basic peptide, MBP 85-99. Peptide antigens were mixed with complete Freund's adjuvant including killed mycobacterium tuberculosis at a doses of 4 mg/ml. 200 micrograms of antigen mixed with the 0.1 ml emulsion of adjuvant were used. The myelin antigens were dissolved in phosphate buffered saline.
Nine rats were used in each of the following groups: EAE control, vehicle control, compound 15 (prevention), compound 15 (pro-treatment), phenyl-N-butyl-nitrone (prevention) and phenyl-N-butyl-nitrone (pro-treatment). For the treatment model, fifteen rats were used in each of three groups: EAE control, vehicle control, compound 15 (treatment). Drugs were administered via oral gavage feeding. Rats were dosed daily after the first dose until recovery from acute disease (typically 20 days after EAE induction). Compound 15 was dosed at 10 mg/kg/day and phenyl-N-butyl-nitrone was dosed at 100 mg/kg/day. In the prevention model, first dose of the drugs was administered 7 days prior to EAE induction. In the pro-treatment model, first dose was administered 4 days after EAE induction. In the treatment model, first dose was administered at the peak of the disease after animals were randomized into equal groups.
All rats were followed daily for clinical signs and weighed every four days. Longer water tubes were used to allow mice to drink when they develop paralysis, and chow was put on the floor of the cage to facilitate nourishment if the rats were paralyzed. Rats were scored as follows: 0, healthy; 1, tail weakness or paralysis; 2, paraparesis (incomplete paralysis of one or two hind limbs or plegia of one hind limb); 3, paraplegia extending to the thorax; 4, forelimb weakness, paralysis with hind limb paraparesis or paraplegia; 5, moribund or dead animal.

CCR7 = target: T1, CCR7 (Homo sapiens, UniProt P32248); experiment: Migration of RBL-2H3 cells expressing CCR7; assay type: cell-based; conditions: RBL-2H3 cells expressing CCR7, 2 hours
T1 construct: Plasmid containing full-length human CCR7 cDNA; host or cells: RBL-2H3 (ATCC CRL-2256), transient transfection
T1 sequence (P32248 25-378): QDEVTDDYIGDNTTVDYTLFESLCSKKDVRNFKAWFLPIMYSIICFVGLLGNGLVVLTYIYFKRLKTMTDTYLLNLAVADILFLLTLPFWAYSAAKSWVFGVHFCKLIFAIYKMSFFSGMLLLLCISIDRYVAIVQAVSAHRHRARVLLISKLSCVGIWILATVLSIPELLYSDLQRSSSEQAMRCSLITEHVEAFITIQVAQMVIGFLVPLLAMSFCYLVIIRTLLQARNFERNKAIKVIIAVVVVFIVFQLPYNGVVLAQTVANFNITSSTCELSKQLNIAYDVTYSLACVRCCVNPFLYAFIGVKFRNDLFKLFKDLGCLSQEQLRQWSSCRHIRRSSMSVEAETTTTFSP
Method: (§1) RBL-2H3 cells were obtained from American Type Culture Collection (CRL-2256) and cultured in Minimum essential medium (MEM) with 10% heat-inactivated fetal bovine serum, 100 μg/ml penicillin/streptomycin. cDNA fragments encompassing chemokine receptor coding regions were obtained from cDNAs synthesized from HL-60 cells and/or human peripheral blood mononuclear cells by the polymerase chain reaction. Expression constructs of chemokine receptors were generated by cloning PCR fragments into expression vector pEF6/V5-TOPO (K9610-20, Invitrogen). Plasmid containing full-length human CXCR5 cDNA (human CXCR50TN00, pcDNA3.1+) was purchased from UMR cDNA Resource Center (Rolla, Mo.). Plasmid containing full-length human CCR7 cDNA (human CCR0700000, pcDNA3.1+) was purchased from UMR cDNA Resource Center (Rolla, Mo.). Transient transfections were carried out with Fugene 6 transfection reagent (1814443, Roche Applied Science) according to the manufacturer's instructions. […]
(§2) Following the migration assays, cells that had migrated to the bottom wells were quantitated using CyQuant reagents according to the manufacturer's instructions (Molecular Probes, Eugene, Oreg.). […] The fluorescence intensity (excitation wavelength at 485 nm and emission wavelength at 530 nm) was measured using Safire Spectrometer (Tecan; Research Triangle Park, N.C.).

CXCR4 = CXCR4 (Homo sapiens, UniProt P61073); experiment: Migration of RBL-2H3 cells expressing CXCR4; assay type: cell-based; design: cDNA fragments encompassing chemokine receptor coding regions; expressed in transfected cells; conditions: RBL-2H3 cells expressing CXCR4, 2 hours
CXCR4, sequence (P61073 whole entry, the tested form may be a part): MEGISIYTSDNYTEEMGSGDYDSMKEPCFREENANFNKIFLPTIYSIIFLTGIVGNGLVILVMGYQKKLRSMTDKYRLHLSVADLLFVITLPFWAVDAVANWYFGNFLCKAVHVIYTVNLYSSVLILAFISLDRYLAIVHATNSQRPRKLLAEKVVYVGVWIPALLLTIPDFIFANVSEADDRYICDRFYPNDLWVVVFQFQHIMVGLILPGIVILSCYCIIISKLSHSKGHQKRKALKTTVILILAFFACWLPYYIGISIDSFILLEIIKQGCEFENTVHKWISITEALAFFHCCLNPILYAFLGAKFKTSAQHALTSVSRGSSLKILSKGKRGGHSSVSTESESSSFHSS
Method: as §1, §2

| Compound | disease free rats, treatment model (rat EAE model; first dose at the peak of EAE, compared to controls, FIG. 14) | clinical scores, pro-treatment model (rat EAE model; rats, first dose 4 days after EAE induction, compared to control or PBN, FIG. 13) | change of clinical scores on day 15, pro-treatment model (rat EAE model; rats, first dose 4 days after EAE induction, day 15) | clinical scores, prevention model (rat EAE model; rats, first dose 7 days prior to EAE induction, compared to controls and to PBN (100 mg/kg/day), FIG. 12) | induction of cell migration (CCR7) | induction of cell migration (CXCR4) |
| --- | --- | --- | --- | --- | --- | --- |
| COCOc1c(C(C)(C)C)cc(/C=[N+](\[O-])C(C)(C)C)cc1C(C)(C)C [Compound 15, α-(4-methoxymethoxy-3,5-di-tert-butyl-phenyl)-N-tert-butylnitrone] | significantly more rats treated with compound 15 were disease free | significantly better clinical scores | improved dramatically | significantly better clinical scores | – | – |
| CCC(C)c1cc(/C=[N+](\[O-])C(C)(C)C)cc(C(C)CC)c1O (stereo not drawn) [Compound 17] | – | – | – | – | induced migration | induced migration |
